Measured values from patent publication US20230025865A1, “COMPOSITIONS AND METHODS FOR […] […] OF Bcl-2 AND Bcl-xL ANTAGONISTS” (The Regents of the University of Michigan, priority 2019, published 2023).

Assays:
[1] = tested on: erythroleukemic HEL, megakaryoblastic leukemic SET-2 and Ruxolitinib resistant HEL cell line; experiment: cytotoxicity, CellTiter96 AQueous cell proliferation assay; format: cell-based; details: single drug, 72 h, HEL and SET-2 cell lines
Experimental: (§1) Cells were seeded in a 96 well plate with 3000 cells per well and culture for 24 h, the appropriate amount of drug in a serial dilution manner was added to each well. After incubation for 72 h, Cell Proliferation was detected by CellTiter96™ AQueous Nonradioactive Cell Proliferation Assay Kit.

[2] = tested on: mantle cell lymphoma (B cell non-Hodgkin's lymphoma) cell line Mino, and Z138 and Rec; experiment: as above; format: cell-based; details: single drug, 72 h
Experimental: as §1

[3] = tested on: small cell lung cancer (SCLC), colon, breast and acute lymphoblastic leukemia (ALL) cancer xenografts; details: cited from earlier work
[4] = stability of APG-1252 during formulation preparation and lyophilization process (HPLC); format: physicochemical; details: final lyophilization product compared to original drug
Experimental: The contents of APG-1252 and its hydrolysis product BM-1244 were measured before and after formulation preparation and lyophilization process by method described above.

[5] = tissue distribution of APG-1252 and BMS-1244 (FIG. 15); format: in vivo, CD-1 IGS mice; details: for 48 hours
From the text: The APG-1252 and BMS-1244 concentration versus time curve in different tissues in CD-1 IGS mice.

percentage of BM-1244 [4] | BMS-1244 relative to APG-1252 [5] | SMILES | cytotoxicity alone [1] | cytotoxicity alone [2] | combination with chemotherapeutic agents ([3]; in vivo) | tumor regression as single agent ([3]; twice weekly or weekly dose-schedule)
0.16% | – | Cc1c(S(C)(=O)=O)c(-c2cc(F)cc(N3CCN(c4ccc(NS(=O)(=O)c5ccc(N[C@H](CCN6CCC(C(=O)OCCCP(=O)(O)O)CC6)CSc6ccccc6)c(S(=O)(=O)C(F)(F)F)c5)cc4)CC3)c2)c(-c2ccc(Cl)cc2)n1C(C)C [APG-1252, (R)-(3-((1-(3-((4-(N-(4-(4-(3-(2-(4-chlorophenyl)-1-isopropyl-5-methyl-4-(methylsulfonyl)-1H-pyrrol-3-yl)-5-fluorophenyl)piperazin-1-yl)phenyl)sulfamoyl)-2-((trifluoromethyl)sulfonyl)phenyl)amino)-4-(phenylthio)butyl)piperidine-4-carbonyl)oxy)propyl)phosphonic acid] | similar | similar | strong synergy with the chemotherapeutic agents | complete and persistent tumor regression
– | less than 10% | Cc1c(S(C)(=O)=O)c(-c2cc(F)cc(N3CCN(c4ccc(NS(=O)(=O)c5ccc(N[C@H](CCN6CCC(C(=O)O)CC6)CSc6ccccc6)c(S(=O)(=O)C(F)(F)F)c5)cc4)CC3)c2)c(-c2ccc(Cl)cc2)n1C(C)C [BM-1244, (R)-1-(3-((4-(N-(4-(4-(3-(2-(4-chlorophenyl)-1-isopropyl-5-methyl-4-(methylsulfonyl)-1H-pyrrol-3-yl)-5-fluorophenyl)piperazin-1-yl)phenyl)sulfamoyl)-2-((trifluoromethyl)sulfonyl)phenyl)amino)-4-(phenylthio)butyl)piperidine-4-carboxylic acid] | – | – | – | –
